Results as given in publication PMC10581251, “Antisense inhibition of RNA polymerase α subunit of Clostridioides difficile” (Microbiology Spectrum, 2023).
≈ marks a conversion by molar mass, not a printed value. Read-outs that look alike come from different tables or passages of the source.

Assays:
C. difficile ATCC 630 = experiment: microbe, parasite or virus in culture
Protocol: (§1) The susceptibility of C. difficile isolates to the CPP-PNA conjugates or to the CPP alone was determined in vitro as described before with slight modifications ([43] [–] [45]). Briefly, the CPP-PNA conjugates, the CPP alone, and the antibiotics vancomycin and fidaxomicin were added in triplicate to the first row of ultra-low adhesion 96-well plates (Corning Inc., Corning, NY). A suspension of C. difficile equivalent to 0.5 McFarland solution was added to Mueller-Hilton II broth, which was then added to the ultra-low adhesion plate and then serially diluted. The plates were incubated anaerobically for 48 hours at 37°C. The minimum inhibitory concentration was defined as the lowest concentration of the CPP-PNA conjugate that could inhibit bacterial growth when observed visually.
(§2) The MIC and MBC experiments were repeated twice.

[1] = system: Bacteroides fragilis HM 714; experiment: MIC gut microflora, Bacteroides fragilis; format: cell-based; settings: broth microdilution, supplemented BHIS broth, 48 hours, read-out: MIC
Protocol: (§3) The susceptibility of gut microflora strains to the rpoA-TAT conjugate was determined using the broth microdilution assay, as described above. Briefly, bacterial suspensions of Bifidobacterium sp. and Bacteroides sp., in supplemented BHIS broth, and Lactobacilli strains, in MRS broth, were added to ultra-low adhesion 96-well plates and serially diluted. The MIC was recorded after 48 hours.

[2] = system: Bifidobacterium longum subsp. longum HM 846; experiment: MIC gut microflora, Bifidobacterium longum; format: cell-based
Protocol: as §3

[3] = system: spore formation by C. difficile ATCC 630; experiment: Spore formation inhibition; format: cell-based, Clostridioides difficile; settings: 0.5× MIC, 12 hours, compared to negative control (no treatment); for log reduction in the spore count: triplicate
Protocol: After the incubation period, the total bacterial count for each treatment group was determined by serial dilution and plating on BHIS agar plates supplemented with 0.1% taurocholic acid. To determine the presence of spores, the remaining bacterial culture from each treatment group was heated at 65°C for 30 minutes to ensure all vegetative cells were killed. The bacterial culture from each treatment group was then serially diluted and plated on BHIS agar plates supplemented with 0.1% taurocholic acid. The plates were incubated overnight, and the CFU counts for each treatment group were determined the following day.

C. difficile 630 [4] = experiment: Killing kinetics (time-kill assay); format: cell-based, Clostridioides difficile; settings: 1× MIC, inoculum ~5 × 10^5 CFU/mL, triplicate
Protocol: The killing kinetics of the PNA construct was determined as described previously ([45] [–] [47]). Briefly, an overnight culture of C. difficile 630 was diluted 1:50 into fresh Mueller Hilton II broth (~10^5 CFU/mL) and added in triplicate to low adhesion microcentrifuge tubes containing either sterile water, the rpoA-TAT construct (1× MIC), or the positive controls vancomycin or fidaxomicin (1× MIC). The number of viable bacteria in each treatment group was determined by taking aliquots at 0, 4, 8, 12, 16, and 24 hours; these aliquots were then serially diluted and plated on BHIS agar plates. The plates were incubated anaerobically, and the number of colony-forming units for each treatment group was recorded the following day. The experiment was repeated twice.

[5] = system: Lactobacillus rhamnosus ATCC 53103; experiment: MIC gut microflora, Lactobacillus rhamnosus; format: cell-based; settings: broth microdilution, MRS broth, 48 hours, read-out: MIC
Protocol: as §3

C. difficile 1082 = experiment: MIC/MBC broth microdilution, C. difficile 1082; format: cell-based, Clostridioides difficile; settings: for MIC: broth microdilution, anaerobic 48 hours 37°C, visual, read-out: MIC; for MBC: plated on BHIS agar, read-out: MBC
Protocol: as §1, §2

C. difficile 1071 = experiment: MIC/MBC broth microdilution, C. difficile 1071; format: cell-based, Clostridioides difficile; settings: for MIC: broth microdilution, anaerobic 48 hours 37°C, visual, read-out: MIC; for MBC: plated on BHIS agar, read-out: MBC
Protocol: as §1, §2

C. difficile 1079 = experiment: MIC/MBC broth microdilution, C. difficile 1079; format: cell-based, Clostridioides difficile; settings: for MIC: broth microdilution, anaerobic 48 hours 37°C, visual, read-out: MIC; for MBC: plated on BHIS agar, read-out: MBC
Protocol: as §1, §2

C. difficile ATCC 43255 = experiment: MIC/MBC broth microdilution, C. difficile ATCC 43255; format: cell-based, Clostridioides difficile; settings: for MIC: broth microdilution, anaerobic 48 hours 37°C, visual, read-out: MIC; for MBC: plated on BHIS agar, read-out: MBC
Protocol: as §1, §2

[6] = system: toxin A and toxin B production by C. difficile 630; experiment: Toxin production inhibition (ELISA); format: cell-based, Clostridioides difficile; settings: 8 hours, ELISA of supernatant, triplicate
Protocol: After the incubation period, the bacterial count in each treatment group was determined by serial dilution and plating. Toxin content in the supernatant of each treatment group was determined using an enzyme-linked immunosorbent assay (ELISA, tgcBIOMICS) kit, as per the manufacturer’s protocol.

[7] = system: C. difficile ATCC BAA 1870; experiment: MIC/MBC broth microdilution, C. difficile ATCC BAA 1870; format: cell-based, Clostridioides difficile; settings: for MIC: broth microdilution, anaerobic 48 hours 37°C, visual, read-out: MIC; for MBC: plated on BHIS agar, read-out: MBC
Protocol: as §1, §2

[8] = system: Lactobacillus gasseri ATCC 19992; experiment: MIC gut microflora, Lactobacillus gasseri; format: cell-based; settings: broth microdilution, MRS broth, 48 hours, read-out: MIC
Protocol: as §3

C. difficile 630 [9] = experiment: Effect of high bacterial inoculum on activity; format: cell-based, Clostridioides difficile; settings: 8 hours; for Log reduction: vs no treatment
Protocol: The in vitro efficacy of the PNA constructs against a high inoculum size of C. difficile 630 was determined. Briefly, the PNA constructs and control antibiotics, at a concentration of 1× MIC, were added in triplicate to low adhesion microcentrifuge tubes (Corning Inc., Corning, NY). A high inoculum of C. difficile suspension equivalent to ~5 × 10^6 and ~5 × 10^7 cells was added to the tubes, which were incubated anaerobically at 37°C. The number of viable bacteria in each treatment group was determined by serial dilution and plating on BHIS agar plates at 8 hours and 24 hours post-incubation, respectively. The effect of a high inoculum on the activity of the PNA construct was repeated twice.

[10] = system: Lactobacillus brevis ATCC 14869; experiment: MIC gut microflora, Lactobacillus brevis; format: cell-based; settings: broth microdilution, MRS broth, 48 hours, read-out: MIC
Protocol: as §3

[11] = broth microdilution, supplemented BHIS broth, 48 hours
[12] = Clostridioides difficile, ATCC43255
[13] = Clostridioides difficile, BAA1870

GRKKKRRQRRRYK-O-CATGGACAAAAC-NH2 [rpoA-TAT, PNA oligomer antisense to C. difficile rpoA covalently conjugated to the TAT cell penetrating peptide]
MBC (C. difficile ATCC 630; aliquots of wells without growth plated on BHIS agar, repeated twice): 8 µM | MIC (C. difficile ATCC 630; broth microdilution, Mueller-Hilton II broth, anaerobic 48 hours 37°C, visual, triplicate, repeated twice): 8 µM | MIC [1]: >32 µM | MIC [2, 11]: >32 µM | reduction in the spore count [3]: 99.9% | log reduction in the spore count [3]: 3.44 log | time to eradication of bacteria (below the limit of detection, 250 CFU/mL) (C. difficile 630 [4]): ≤ 8 h | MIC [5]: >32 µM | MIC (C. difficile 1082): 4 µM | MBC (C. difficile 1082): 4 µM | MIC (C. difficile 1071): 8 µM | MBC (C. difficile 1071): 8 µM | MIC (C. difficile 1079): 8 µM | MBC (C. difficile 1079): 8 µM | MIC (C. difficile ATCC 43255): 8 µM | MBC (C. difficile ATCC 43255): 8 µM | reduction of C. difficile toxin production ([6]; 0.125× MIC): 34.9% | reduction of C. difficile toxin production ([6]; 0.25× MIC): 54.3% | reduction of C. difficile toxin production ([6]; 0.5× MIC): 55.2% | MIC [7]: 8 µM | MBC [7]: 8 µM | MIC [8]: >32 µM | Log CFU (C. difficile 630 [9]; inoculum 5 × 10^6, 1× MIC): 0 | Log reduction (C. difficile 630 [9]; inoculum 5 × 10^6, 1× MIC): 6.37 | Log CFU (C. difficile 630 [9]; inoculum 5 × 10^7, 1× MIC): 0 | Log reduction (C. difficile 630 [9]; inoculum 5 × 10^7, 1× MIC): 7.77 | MIC [10]: >32 µM

CCc1c(Cl)c(O)c(Cl)c(O)c1C(=O)O[C@H]1[C@H](O)[C@H](OC)[C@H](OC/C2=C\C=C\C[C@H](O)/C(C)=C/[C@H](CC)[C@@H](O[C@@H]3OC(C)(C)[C@@H](OC(=O)C(C)C)[C@H](O)[C@@H]3O)/C(C)=C/C(C)=C/C[C@@H]([C@@H](C)O)OC2=O)O[C@@H]1C [Fidaxomicin, fidaxomicin]
MBC (C. difficile ATCC 630; Clostridioides difficile, ATCC630): 0.5 µM (≈ 0.529 µg/mL) | MIC (C. difficile ATCC 630; Clostridioides difficile, ATCC630, 48 h): 0.5 µM (≈ 0.529 µg/mL) | MIC ([1]; Bacteroides fragilis, HM714): > 2 µM | MIC ([2]; Bifidobacterium longum, 48 h): 0.125 µM (≈ 0.132 µg/mL) | MIC [2, 11]: 0.125 µM (≈ 0.132 µg/mL) | reduction in the spore count [3]: 99.9% | log reduction in the spore count [3]: 3.44 log | time to eradication of bacteria (below the limit of detection, 250 CFU/mL) (C. difficile 630 [4]): ≤ 12 h | MIC ([5]; Lacticaseibacillus rhamnosus, ATCC53103): > 2 µM | MIC (C. difficile 1082; Clostridioides difficile, 1082): 2 µM (≈ 2.12 µg/mL) | MBC (C. difficile 1082; Clostridioides difficile, 1082): 2 µM (≈ 2.12 µg/mL) | MIC (C. difficile 1071; Clostridioides difficile, 1071): 1 µM (≈ 1.06 µg/mL) | MBC (C. difficile 1071; Clostridioides difficile, 1071): 1 µM (≈ 1.06 µg/mL) | MIC (C. difficile 1079; Clostridioides difficile, 1079): 2 µM (≈ 2.12 µg/mL) | MBC (C. difficile 1079; Clostridioides difficile, 1079): 2 µM (≈ 2.12 µg/mL) | MIC (C. difficile ATCC 43255; [12]): 0.5 µM (≈ 0.529 µg/mL) | MBC (C. difficile ATCC 43255; [12]): 0.5 µM (≈ 0.529 µg/mL) | reduction of C. difficile toxin production ([6]; 0.125× MIC): 45.7% | reduction of C. difficile toxin production ([6]; 0.25× MIC): 50.6% | reduction of C. difficile toxin production ([6]; 0.5× MIC): 54% | MIC [7, 13]: 1 µM (≈ 1.06 µg/mL) | MBC [7, 13]: 1 µM (≈ 1.06 µg/mL) | MIC ([8]; Lactobacillus gasseri, ATCC19992): > 2 µM | Log CFU (C. difficile 630 [9]; inoculum 5 × 10^6, 1× MIC): 0 | Log reduction (C. difficile 630 [9]; inoculum 5 × 10^6, 1× MIC): 6.37 | Log CFU (C. difficile 630 [9]; inoculum 5 × 10^7, 1× MIC): 0 | Log reduction (C. difficile 630 [9]; inoculum 5 × 10^7, 1× MIC): 7.77 | MIC ([10]; Levilactobacillus brevis, ATCC14869): > 2 µM
